In ChEMBL document CHEMBL3875224, “Synthesis, docking, cytotoxicity, and LTA4H inhibitory activity of new gingerol derivatives as potential colorectal cancer therapy” (Bioorg Med Chem, 2017):

Key:
[1] = target: T1, Leukotriene A-4 hydrolase (Homo sapiens, UniProt P09960); test: Inhibition of recombinant C-terminal His-tagged human LTA4H aminopeptidase activity expressed in Escherichia coli using L-alanine-4-nitro-anilide hydrochloride as substrate preincubated for 20 mins followed by substrate addition
T1 sequence (P09960 whole entry): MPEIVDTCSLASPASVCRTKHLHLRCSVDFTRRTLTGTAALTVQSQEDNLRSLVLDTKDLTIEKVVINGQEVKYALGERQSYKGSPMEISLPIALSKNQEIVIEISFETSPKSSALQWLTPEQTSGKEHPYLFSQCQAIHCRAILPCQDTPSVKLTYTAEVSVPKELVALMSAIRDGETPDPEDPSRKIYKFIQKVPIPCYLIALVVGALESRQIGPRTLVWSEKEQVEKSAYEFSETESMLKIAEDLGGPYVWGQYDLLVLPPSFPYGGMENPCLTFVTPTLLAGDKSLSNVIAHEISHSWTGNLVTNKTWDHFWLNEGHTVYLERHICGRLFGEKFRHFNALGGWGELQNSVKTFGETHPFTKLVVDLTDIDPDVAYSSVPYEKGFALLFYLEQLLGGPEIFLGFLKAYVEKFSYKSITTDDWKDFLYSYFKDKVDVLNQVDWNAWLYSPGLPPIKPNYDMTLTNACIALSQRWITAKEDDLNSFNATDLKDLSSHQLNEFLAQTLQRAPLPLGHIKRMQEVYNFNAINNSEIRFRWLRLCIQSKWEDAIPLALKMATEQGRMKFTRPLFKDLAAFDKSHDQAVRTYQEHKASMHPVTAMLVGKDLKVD

[2] = target: T1, Leukotriene A-4 hydrolase; test: Inhibition of recombinant C-terminal His-tagged human LTA4H epoxide hydrolase activity expressed in Escherichia coli assessed as reduction in LTB4 production using LTA4 as substrate preincubated for 20 mins followed by substrate addition measured after 30 mins by enzyme immunoassay
[3] = Cytotoxicity against human HF19 cells assessed as reduction in cell viability after 48 hrs by WST1 assay; assay type: toxicity, cell-based
[4] = Cytotoxicity against human HCT116 cells assessed as reduction in cell viability after 48 hrs by WST1 assay; assay type: functional, cell-based; settings: HCT-116, 48 h
HCT-116 = test: Selectivity index, ratio of IC50 for human TIG1 cells to IC50 for human HCT116 cells; assay type: functional
[5] = Cytotoxicity against human TIG1 cells assessed as reduction in cell viability after 48 hrs by WST1 assay; assay type: toxicity, cell-based

Structure (SMILES) | IC50 [1] | IC50 [2] | IC50 at 48 h [3] | IC50 [4] | Ratio IC50 (HCT-116) | IC50 at 48 h [5]
CCCCCC(O)CC(=O)CCc1ccc(O)c(OC)c1 (configuration not stated) | 56.1 µM | 58.3 µM | > 100 µM | 45.1 µM | 1.67 | 75.2 µM
CCCCCC(CC(=O)CCc1ccc(O)c(OC)c1)OC (configuration not stated) | > 100 µM | > 100 µM | > 100 µM | > 100 µM |  | > 100 µM
CCCC(O)CC(=O)CCc1ccc(O)c(OC)c1 (configuration not stated) | > 100 µM | > 100 µM | > 100 µM | > 100 µM |  | > 100 µM
CCCCCCCCCC(O)CC(=O)CCc1ccc(O)c(OC)c1 (configuration not stated) | 21.6 µM | 15.2 µM | > 100 µM | 33.4 µM | 3 | > 100 µM
CCCCCCCC(O)CC(=O)CCc1ccc(O)c(OC)c1 (configuration not stated) | > 100 µM | > 100 µM | 77.6 µM | > 100 µM | 0.55 | 55.6 µM
Nc1nc(-c2ccc(Cc3ccccc3)cc2)cs1 | 7.61 µM | 12.4 µM | > 100 µM | 30.5 µM | 2.76 | 84.3 µM
CCCCC/C=C/CCC(O)CC(=O)CCc1ccc(O)c(OC)c1 (configuration not stated) | 45.6 µM | 67.1 µM | 97.5 µM | 46 µM | 2.17 | > 100 µM
CCCCCC(O)CC(=O)CCc1cc(OC)c(O)c(-c2cc(CCC(=O)CC(O)CCCCC)cc(OC)c2O)c1 (configuration not stated) | > 100 µM | 77.8 µM | 54.8 µM | > 100 µM | 0.63 | 63.1 µM
COc1ccc(CCC(C)=O)cc1OC | > 100 µM | > 100 µM | > 100 µM | > 100 µM |  | > 100 µM
CCCCC/C=C/C(=O)CCc1ccc(OC)c(OC)c1 | 4.92 µM | 11.3 µM | > 100 µM | 1.54 µM | 52.3 | 80.6 µM
CCCCCC(O)CC(=O)CCc1ccc(OCC=C(C)C)c(OC)c1 (configuration not stated) | 3.01 µM | 7.25 µM | > 100 µM | 21.5 µM | 3.87 | 83.2 µM
CC(C)=CCCC(C)[C@H]1CC=C(C)C(O)[C@H]1O (some centres not stated) | > 100 µM | > 100 µM | > 100 µM | > 100 µM | 1 | > 100 µM
CCCCC/C=C/C(=O)CCc1ccc(OC(C)=O)c(OC)c1 | 9.31 µM | 29.5 µM | > 100 µM | 26.9 µM | 3.72 | > 100 µM
CCCCCC(CC(=O)CCc1ccc(OC(C)=O)c(OC)c1)OC(C)=O (configuration not stated) | 22.1 µM | 27.6 µM | > 100 µM | 30.9 µM | 3.23 | > 100 µM
CCCCCC(O)CC(=O)CCc1ccc(OC)c(OC)c1 (configuration not stated) | > 100 µM | > 100 µM | 88.4 µM | 76.5 µM | 1.21 | 92.8 µM
C=CCOc1ccc(CCC(=O)CC(O)CCCCC)cc1OC (configuration not stated) | 56.3 µM | 66.4 µM | > 100 µM | > 100 µM | 0.65 | 64.6 µM
CCCCCC(CC(=O)CCc1ccc(OC)c(OC)c1)OC (configuration not stated) | > 100 µM | > 100 µM | > 100 µM | > 100 µM |  | > 100 µM
CCCCC/C=C/C(=O)CCc1ccc(O)c(OC)c1 [SHOGAOL] | 12.5 µM | 24.6 µM | > 100 µM | 12.9 µM | 7.77 | > 100 µM
CC(C)C[C@H](NC(=O)[C@@H](O)[C@H](N)Cc1ccccc1)C(=O)O [UBENIMEX] |  |  | 89.5 µM | 42.5 µM |  | 77.8 µM
